Like-named read-outs stand apart in the source and are kept apart here.
Tests used:
[1] = target: SARS-CoV-2 Papain-like (PLpro) protease (Severe acute respiratory syndrome coronavirus 2, UniProt P0DTD1); test: SARS-CoV-2 Papain-like (PLpro) protease biochemical enzyme inhibition assay (ubiquitin-fluorophore substrate, Ub-R110); conditions: Ub-R110 substrate; run in duplicate; read-out: PLpro IC50
[2] = test system: SARS-CoV-2 replicon; test: microbe, parasite or virus in culture; type: cell-based; conditions: Severe acute respiratory syndrome coronavirus 2, Huh-7
[3] = test system: SARS-CoV-2 USA-WA1/2020; test: microbe, parasite or virus in culture; type: cell-based; conditions: read-out: SARS-CoV-2 BSL3 EC50
[4] = Severe acute respiratory syndrome coronavirus 2, 144 h, Vero 76 cells, SARS-CoV-2 USA-WA1/2020, neutral red, day 6

| SMILES | IC50 [1] | EC50 [2] | EC50 [3, 4] | EC50 ([3]; Severe acute respiratory syndrome coronavirus 2, Vero 76, 144 h) |
| --- | --- | --- | --- | --- |
| O=C(NCC#CC(=O)N1CC(F)(F)C1)C(=O)NCc1ccccc1C(=O)NC1(c2cccc3ccccc23)CC1 [Example 529] | < 100 nM | < 1000 nM | < 1000 nM | – |
| O=C(C#CCNC(=O)C(=O)NCc1ccccc1C(=O)NC1(c2cccc3ccccc23)CC1)N[C@]12C[C@](C(F)(F)F)(C1)C2 [Example 525] | < 100 nM | < 1000 nM | 1000 to 10000 nM | – |
| COC(=O)/C=C/CCNC(=O)C(=O)NCc1ccccc1C(=O)NC1(c2cccc3ccccc23)CC1 [Example 3] | < 100 nM | < 1000 nM | < 1000 nM | – |
| N#CCNC(=O)C(=O)NCc1ccccc1C(=O)NC1(c2cc(Cl)cc(-c3cccs3)c2)CC1 [Example 457, N1-(2-((1-(3-chloro-5-(thiophen-2-yl)phenyl)cyclopropyl)carbamoyl)benzyl)-N2-(cyanomethyl)oxalamide] | < 100 nM | 1000 to 10000 nM | – | 1000 to 10000 nM |
| O=C(NCC#CC(=O)N1CC2CC2C1)C(=O)NCc1ccccc1C(=O)NC1(c2ccc3ccccc3c2)CC1 (stereo not shown) [Example 527] | < 100 nM | < 1000 nM | < 1000 nM | – |
| O=C(C#CCNC(=O)C(=O)NCc1ccccc1C(=O)NC1(c2ccc3ccccc3c2)CC1)N[C@]12C[C@](C(F)(F)F)(C1)C2 [Example 537] | < 100 nM | < 1000 nM | < 1000 nM | – |
| COC(=O)/C=C/CCNC(=O)C(=O)NCc1ccccc1C(=O)N[C@H](C)c1cccc2ccccc12 [Example 1] | < 100 nM | < 1000 nM | < 1000 nM | – |
| O=C(NCC#CC(=O)N1CC2CC2C1)C(=O)NCc1ccccc1C(=O)NC1(c2cccc3ccccc23)CC1 (stereo not shown) [Example 528] | < 100 nM | < 1000 nM | < 1000 nM | – |
| C#CCNC(=O)C(=O)NCc1ccc(-c2ccn(C(F)F)n2)cc1C(=O)NC1(c2ccc(F)c3ccccc23)CC1 [Example 126] | < 100 nM | < 1000 nM | < 1000 nM | – |
| O=C(C#CCNC(=O)C(=O)NCc1ccccc1C(=O)NC1(c2ccc3ccccc3c2)CC1)NC1CC1 [Example 536] | < 100 nM | < 1000 nM | < 1000 nM | – |
| COC(=O)/C=C/CNC(=O)C(=O)NCc1ccccc1C(=O)N[C@H](C)c1cccc2ccccc12 [Example 2] | < 100 nM | < 1000 nM | < 1000 nM | – |
| O=C(C#CCNC(=O)C(=O)NCc1ccccc1C(=O)NC1(c2cccc3ccccc23)CC1)NC1CC1 [Example 518] | < 100 nM | < 1000 nM | < 1000 nM | – |
| COc1ccc(-c2cc(C3(NC(=O)c4ccccc4CNC(=O)C(=O)NCC#N)CC3)c3ccccc3c2)s1 [Example 351] | < 100 nM | < 1000 nM | – | – |
| O=C(NCC#Cc1ccccn1)C(=O)NCc1ccccc1C(=O)NC1(c2cc(F)cc(-c3cnn(C4CC4)c3)c2)CC1 [Example 252] | < 100 nM | < 1000 nM | – | – |
| N#CCNC(=O)C(=O)NCc1ccccc1C(=O)NC1(c2cc(F)c(F)c(-c3cnn(C4CC4)c3)c2)CC1 [Example 240] | < 100 nM | > 10000 nM | – | – |
| Cc1cccnc1C#CCNC(=O)C(=O)NCc1ccccc1C(=O)NC1(c2ccc3nn(C)cc3c2)CC1 [Example 271] | < 100 nM | < 1000 nM | – | – |
| O=C(NCC#Cc1nccs1)C(=O)NCc1ccccc1C(=O)NC1(c2cc(F)cc(-n3cc(C4CC4)cn3)c2)CC1 [Example 489] | < 100 nM | < 1000 nM | – | – |
| N#CCNC(=O)C(=O)NCc1ccccc1C(=O)NC1(c2cccc3ccccc23)CC1 [Example 25] | < 100 nM | < 1000 nM | – | – |
| C#CCNC(=O)C(=O)NCc1ccccc1C(=O)NC1(c2cc(F)cc(-c3cccs3)c2)CC1 [Example 224] | < 100 nM | < 1000 nM | – | – |

| SMILES | IC50 [1] | EC50 [2] | EC50 [3, 4] | EC50 ([3]; Severe acute respiratory syndrome coronavirus 2, Vero 76, 144 h) |
| --- | --- | --- | --- | --- |
| COc1cnc(C#CCNC(=O)C(=O)NCc2ccccc2C(=O)NC2(c3ccc4ccccc4c3)CC2)cn1 [Example 198] | < 100 nM | < 1000 nM | – | – |
| C[C@@H](C#Cc1nccs1)NC(=O)C(=O)NCc1ccccc1C(=O)N[C@H](C)c1cc(F)cc(-c2cnn(C(F)F)c2)c1 [Example 496] | < 100 nM | < 1000 nM | – | – |
| O=C(NC/C=C/C(=O)N1CC[C@H](O)C1)C(=O)NCc1ccccc1C(=O)NC1(c2cccc3ccccc23)CC1 [Example 555] | 100 to 1000 nM | 1000 to 10000 nM | – | – |
| O=C(NCC#Cc1nccs1)C(=O)NCc1ccccc1C(=O)NC1(c2cc(-c3ccn(C(F)F)n3)cc(F)c2F)CC1 [Example 296] | < 100 nM | < 1000 nM | – | – |
| C#CCNC(=O)C(=O)NCc1ccccc1C(=O)NC1(c2ccc(F)c(-c3cccs3)c2)CC1 [Example 223] | < 100 nM | < 1000 nM | – | – |
| Cc1n[nH]cc1-c1cc(C2(NC(=O)c3ccccc3CNC(=O)C(=O)NCC#N)CC2)c2ccccc2c1 [Example 284] | < 100 nM | < 1000 nM | – | – |
| C#CCNC(=O)C(=O)NCc1ccccc1C(=O)NC1(c2cc(-c3cnn(C4CC4)c3)cc(Cl)c2F)CC1 [Example 302] | < 100 nM | < 1000 nM | – | – |
| Cn1ccnc1C#CCNC(=O)C(=O)NCc1ccccc1C(=O)NC1(c2ccc3ccccc3c2)CC1 [Example 197] | < 100 nM | < 1000 nM | – | – |
| C#CCNC(=O)C(=O)NCc1ccccc1C(=O)NC1(c2ccc(F)c(Br)c2)CC1 [Example 227] | < 100 nM | < 1000 nM | – | – |
| N#CCNC(=O)C(=O)NCc1ccccc1C(=O)NC1(c2ccc3c4c(cccc24)CC3)CC1 [Example 439] | < 100 nM | < 1000 nM | – | – |
| O=C(/C=C/CNC(=O)C(=O)NCc1ccccc1C(=O)NC1(c2cccc3ccccc23)CC1)Nc1ccccc1 [Example 561] | 100 to 1000 nM | 1000 to 10000 nM | – | – |
| N#CCNC(=O)C(=O)NCc1ccc(-c2ccn(C(F)F)n2)cc1C(=O)NC1(c2ccc(F)c3ccccc23)CC1 [Example 125] | < 100 nM | 1000 to 10000 nM | < 1000 nM | – |
| C#CCNC(=O)C(=O)NCc1ccccc1C(=O)NC1(c2cc(Cl)cc(-c3cncs3)c2)CC1 [Example 447] | < 100 nM | < 1000 nM | – | – |
| C[C@@H](NC(=O)c1ccccc1CNC(=O)C(=O)NCC#N)c1cc(-c2cnn(C3CC3)c2)cc(C(F)(F)F)c1 [Example 458] | < 100 nM | < 1000 nM | – | – |
| N#CN1CC(C(=O)NCc2ccccc2C(=O)NC2(c3cccc4ccccc34)CC2)C1 [Example 114] | < 100 nM | < 1000 nM | – | – |
| C[C@@H](C#Cc1nccs1)NC(=O)C(=O)NCc1ccccc1C(=O)NC1(c2ccc3nn(C)cc3c2)CC1 [Example 184] | < 100 nM | < 1000 nM | – | – |
| O=C(NCC#Cc1cc(F)ccn1)C(=O)NCc1ccccc1C(=O)NC1(c2ccc3ccccc3c2)CC1 [Example 187] | < 100 nM | < 1000 nM | – | – |
| O=C(NCC#CC(=O)N1CC(F)(F)C1)C(=O)NCc1ccccc1C(=O)NC1(c2ccc3ccccc3c2)CC1 [Example 535] | < 100 nM | < 1000 nM | 1000 to 10000 nM | – |

From US20240327334A1, “Covalent Inhibitors As Antiviral Agents” (Enanta Pharmaceuticals, Inc., priority 2022, published 2024)
